Experimental data taken from paper PMC5607274, “An iterative compound screening contest method for identifying target protein inhibitors using the tyrosine-protein kinase Yes” (Scientific Reports, 2017).

These molecules were tested against T1, human recombinant Yes [a.a. 2–543 (end)] (Homo sapiens, UniProt P07947) (assay: ADP-Glo kinase assay, inhibition rates of Yes phosphorylation activity (first and second screening)). Details: first screening; mean of n = 4 wells; 10 μmol L−1 compound.
T1 construct: human recombinant Yes [a.a; 2–543 (end)]; purchased BPS Bioscience 40488
T1 sequence (P07947 2-543): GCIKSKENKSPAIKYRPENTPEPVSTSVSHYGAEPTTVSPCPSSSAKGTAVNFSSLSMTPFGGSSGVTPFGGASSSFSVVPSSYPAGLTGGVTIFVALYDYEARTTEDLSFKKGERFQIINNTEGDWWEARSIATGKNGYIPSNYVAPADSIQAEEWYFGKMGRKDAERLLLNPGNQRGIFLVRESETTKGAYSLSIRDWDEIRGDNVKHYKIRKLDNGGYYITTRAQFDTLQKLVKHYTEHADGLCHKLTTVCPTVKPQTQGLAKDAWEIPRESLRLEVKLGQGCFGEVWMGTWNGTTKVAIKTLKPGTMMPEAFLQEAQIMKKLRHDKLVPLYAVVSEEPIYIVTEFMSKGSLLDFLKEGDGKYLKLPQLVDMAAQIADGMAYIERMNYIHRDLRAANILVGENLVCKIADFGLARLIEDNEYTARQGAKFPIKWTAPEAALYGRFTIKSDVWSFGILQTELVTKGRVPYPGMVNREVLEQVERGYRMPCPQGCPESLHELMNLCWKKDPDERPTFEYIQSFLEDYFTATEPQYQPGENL
Format: biochemical
Method: All inhibitory assays of the phosphorylation activity of Yes were performed in accordance with the Promega Technical Manual for the ADP-Glo™ Kinase Assay (Fitchburg, WI, USA. Catalog number: V9102). The human recombinant Yes [a.a. 2–543 (end)] was purchased from BPS Bioscience (catalog number: 40488). The details of the assay protocol and reagent information are given elsewhere.
The screening was conducted in three steps consisting of the first screening, the second screening, and the IC50 determination, as can be illustrated in Fig. 1b. First, we determined the inhibition rates of the 1,991 compounds. Each compound was placed in 4 wells of a 384-well plate. In total, 80 compounds were assayed on one plate and the other wells were used for positive and negative controls. The compounds were randomly placed on plates so that compounds proposed by one group were not placed on a plate together. A mean of four inhibition rates for each compound was compared to criteria for the first screening. […] Second, the inhibition rates of the screened compounds were determined on one plate using the same procedure of the first screening, where compounds were dissolved from fresh powder. […] Screened compounds were then evaluated for their IC50 values.

| First screening IR (inhibition rate) | Compound |
| --- | --- |
| 6% | O=C(CSc1nc2ccccc2s1)Nc1cccc2c1C(=O)c1ccccc1C2=O [Compound Z19654122] |
| 7% | CCc1cccc(NC(=O)COC(=O)Cc2cccc3ccccc23)c1 [Compound Z19678477] |
| 1% | CCn1c2ccccc2c2cc(NC(=O)COC(=O)c3c4c(nc5ccccc35)CCCC4)ccc21 [Compound Z19690549] |
| 10% | CC(C)N(c1ccccc1)c1ccc(NC(=O)COC(=O)c2c3c(nc4ccccc24)CCCC3)cc1 [Compound Z19690670] |
| 28% | Cc1ccccc1Nc1nc(N)nc(CSc2ccccc2)n1 [Compound Z19751109] |
| 5% | O=C(COc1c(Br)cc(Br)c2cccnc12)N1CCCCC1 [Compound Z19811005] |
| 3% | COc1ccccc1NC(=O)c1ccc(NC(=O)COc2ccc(-c3ccccc3)cc2)cc1 [Compound Z19829052] |
| -7% | Cc1ccccc1Nc1nc(N)nc(CSc2nc3ccccc3c(=O)n2CCCN2CCOCC2)n1 [Compound Z19837406] |
| 46% | O=C(CSc1nc2ccccc2c(=O)n1CCCN1CCOCC1)Nc1ccc2ccccc2c1 [Compound Z19837911] |
| 2% | COc1ccc(-n2c(SCC(=O)N3CCCCCC3)nnc2-c2ccc(Cl)cc2)cc1 [Compound Z19871234] |
| 27% | COc1cccc(-c2nnc(SCC(=O)N3CCOCC3)n2-c2ccc(C)cc2)c1 [Compound Z19982748] |
| -5% | O=C(CSc1nnc(COc2ccccc2Cl)n1-c1ccccc1)N1CCc2ccccc2C1 [Compound Z20151781] |
| 3% | Cc1cccc(C)c1Nc1nnc(SCC(=O)NC(Cc2c[nH]c3ccccc23)C(=O)O)s1 (centres unmarked) [Compound Z20162836] |
| -9% | Cc1ccc(NC(=O)C(C)Sc2ncnc3sc4c(c23)CCC4)cc1 (centres unmarked) [Compound Z20227630] |
| -1% | Cc1sc2ncnc(SCC(=O)Nc3ncc(Cl)c(C)c3Cl)c2c1C [Compound Z20229401] |
| 4% | CC(Sc1nnc2ccccn12)C(=O)Nc1nc(-c2ccc(Cl)c(Cl)c2)cs1 (centres unmarked) [Compound Z20241270] |
| 21% | CC(Sc1nnc2ccccn12)C(=O)Nc1nc(-c2ccc(F)c(F)c2)cs1 (centres unmarked) [Compound Z20241790] |
| 8% | Cc1cc(SCC(=O)NC(=O)NC2CCCC2)nc2ccccc12 [Compound Z20243594] |
| 5% | Cc1cc(SCC(=O)c2cc(C)n(-c3ccccc3F)c2C)nc2ccccc12 [Compound Z20243606] |
| 8% | Cc1ccc(C)c(-n2nnnc2SC(C)C(=O)Nc2ccc(Cl)cn2)c1 (centres unmarked) [Compound Z21689617] |
| -2% | COCCn1cnc2c1c(=O)n(CC(=O)NC(=O)NC1CCCCC1C)c(=O)n2Cc1ccccc1 (centres unmarked) [Compound Z24102979] |
| 9% | CCn1cnc2c1c(=O)n(CC(=O)N1CCC(Cc3ccccc3)CC1)c(=O)n2Cc1ccccc1 [Compound Z24103907] |
| 8% | COC(=O)c1ccc(CNC(=O)Cn2c(=O)c3c(ncn3CCC(C)C)n(Cc3ccccc3)c2=O)cc1 [Compound Z24149625] |
| 4% | C=CCn1c(SCc2cc(=O)n3ccsc3n2)nnc1-c1ccncc1 [Compound Z24172012] |
| -6% | C=CCn1c(COc2ccccc2F)nnc1SCCCn1c(=O)[nH]c2ccccc21 [Compound Z24188026] |

| First screening IR (inhibition rate) | Compound |
| --- | --- |
| 0% | Cc1ccc(C(=O)C(Sc2nnc(C3COc4ccccc4O3)n2C)c2ccc(C)cc2)cc1 (centres unmarked) [Compound Z24312958] |
| 8% | COc1ccc(S(=O)(=O)NCC(=O)OCC(=O)Nc2ccc(Cl)c(C(F)(F)F)c2)cc1 [Compound Z24395276] |
| 0% | C=CCN(CC(=O)Nc1ccc(S(=O)(=O)N2CCOCC2)cc1)S(=O)(=O)c1ccccc1C(F)(F)F [Compound Z24398732] |
| 40% | CC(C)(C)c1ccc(OCc2nnc(SCC(=O)N3CCC(c4ccccc4)=N3)n2N)cc1 [Compound Z24578166] |
| 9% | O=C(COc1cccnc1[N+](=O)[O-])Nc1ccc2c(c1)OCCO2 [Compound Z24778709] |
| -13% | Cc1ccc(SCc2nc(N)nc(Nc3ccccc3C)n2)cc1C [Compound Z24835676] |
| -1% | Cc1cc(C)c(NC(=O)CNC(=O)COc2ccccc2C(=O)N2CCCCC2)c(C)c1 [Compound Z25138787] |
| 17% | COc1ccccc1NC(=O)c1ccc(NC(=O)COc2ccc(-n3cnnn3)cc2)cc1 [Compound Z25181441] |
| 4% | CC(Sc1n[nH]c(-c2ccccc2Br)n1)C(=O)Nc1ccc(F)cc1 (centres unmarked) [Compound Z25191222] |
| -4% | Cc1ccc2nc(CSc3n[nH]c(-c4ccccc4)n3)cn2c1 [Compound Z25398010] |
| 49% | CC(Sc1n[nH]c(-c2ccccc2)n1)C(=O)c1c[nH]c2ccccc12 (centres unmarked) [Compound Z25398193] |
| 1% | COC(=O)c1cc(CSc2n[nH]c(-c3ccccc3)n2)oc1C [Compound Z25398505] |
| 13% | O=C(CSc1n[nH]c(-c2ccccc2)n1)N1N=C(c2ccc(Cl)cc2)CC1c1ccco1 (centres unmarked) [Compound Z25399394] |
| -1% | Cc1oc2cc(OCC(=O)N(C)C3CCS(=O)(=O)C3)ccc2c(=O)c1-c1c(F)cccc1Cl (centres unmarked) [Compound Z25645184] |
| -11% | CC(O)CNc1nc2ccccc2n1CC(=O)NCc1cccs1 (centres unmarked) [Compound Z25766910] |
| -24% | CC(=O)CCc1ccc(OCc2cc(=O)n3cc(C)ccc3n2)cc1 [Compound Z25824142] |
| 38% | COc1cc(Cl)c(C)cc1NC(=O)CN(Cc1ccco1)S(=O)(=O)c1cccc(Cl)c1 [Compound Z25969255] |
| 7% | O=[N+]([O-])c1cc2c(c(CN(Cc3ccccc3)S(=O)(=O)c3cccc(C(F)(F)F)c3)c1)OCOC2 [Compound Z25980301] |
| 3% | C=CCN(Cc1nnc(-c2ccc(Cl)cc2)o1)S(=O)(=O)c1ccc(NC(C)=O)cc1 [Compound Z26082391] |
| 3% | C=CCN(CC(=O)Nc1cccc(C#N)c1)S(=O)(=O)c1ccccc1F [Compound Z26091205] |
| -6% | Cc1ccc(C)c(S(=O)(=O)N(CC(=O)Nc2ccc(Oc3ccccc3)cc2)Cc2ccc(F)cc2)c1 [Compound Z26125608] |
| 35% | COc1ccc(C(N)=O)c(OCc2nc3ccccc3nc2C)c1 [Compound Z26325749] |
| 18% | Cc1cccc(OCC(=O)Nc2sc3c(c2C(N)=O)CCC3)c1 [Compound Z26345967] |
| 1% | COc1cc(C(=O)Nc2c(C)cccc2C(C)C)ccc1OCc1c(C)noc1C [Compound Z26400530] |
| 46% | Cc1ccc(-c2nn(-c3ccc(F)cc3)cc2C(=O)N(C)CC(=O)Nc2ccc(N3CCOCC3)cc2)cc1 [Compound Z26593504] |
